From patent US20060247263A1, “Substituted heterocyclic compounds and methods of use” (Amgen Inc., priority 2005, published 2006)
pIC50: −log10 of the molar value.

system: LPS induced TNF release; assay: Lipopolysaccharide-Activated THP1 Cell TNF Production Assay; format: cell-based; settings: Homo sapiens, THP-1, THP1 cells, 3 h at 37° C., secreted TNF-α
Procedure: Lipopolysaccharide-Activated THP1 Cell TNF Production Assay
THP1 cells are resuspended in fresh THP1 media (RPMI 1640, 10% heat-inactivated FBS, 1XPGS, 1XNEAA, plus 30 μM βME) at a concentration of 1E6/mL. One hundred microliters of cells per well are plated in a polystyrene 96-well tissue culture. One microgram per mL of bacterial LPS is prepared in THP1 media and is transferred to the wells. Test compounds are dissolved in 100% DMSO and are serially diluted 3 fold in a polypropylene 96-well microtiter plate (drug plate). HI control and LO control wells contain only DMSO. One microliter of test compound from the drug plate followed by 10 μL of LPS are transferred to the cell plate. The treated cells are induced to synthesize and secrete TNF-α at 37° C. for 3 h. Forty microliters of conditioned media are transferred to a 96-well polypropylene plate containing 110 μL of ECL buffer (50 mM Tris-HCl pH 8.0, 100 mM NaCl, 0.05% Tween 20, 0.05% NaN3 and 1% FBS) supplemented with 0.44 nM MAB610 monoclonal Ab (R&D Systems), 0.34 nM ruthenylated AF210NA polyclonal Ab (R&D Systems) and 44 μg/mL sheep anti-mouse M280 Dynabeads (Dynal). After a 2 h incubation at RT with shaking, the reaction is read on the ECL M8 Instrument (IGEN Inc.). A low voltage is applied to the ruthenylated TNF-α immune complexes, which in the presence of TPA (the active component in Origlo), results in a cyclical redox reaction generating light at […]. The amount of secreted TNF-α in the presence of compound compared with that in the presence of DMSO vehicle alone (HI control) is calculated using the formula:% control (POC)=(cpd−average LO)/(average HI−average LO)*100. Data (consisting of POC and inhibitor concentration in μM) is fitted to a 4-parameter equation (y=A+((B−A)/(1+((x/C)ˆD))), where A is the minimum y (POC) value, B is the maximum y (POC), C is the x (cpd concentration) at the point of inflection and D is the slope factor) using a Levenburg-Marquardt non-linear regression algorithm.

pIC50, ≥ 4.70:
CN(c1cc(-c2ccccc2)c2ncn(C)c2c1)c1ccnc(NC2CCNCC2)n1, CC(Cc1cccc(CO)c1)Nc1nccc(N(C)c2cc(-c3ccccc3)c3ncn(C)c3c2)n1 (stereo not shown) [(3-(2-(4-(Methyl(3-methyl-7-phenyl-3H-benzo[d]imidazol-5-yl)amino)pyrimidin-2-ylamino)propyl)phenyl)methanol], CC(Cc1cccc(CN)c1)Nc1nccc(N(C)c2cc(-c3ccccc3)c3ncn(C)c3c2)n1 (stereo not shown) [N2-(1-(3-(Aminomethyl)phenyl)propan-2-yl)-N-4-methyl-N-4-(3-methyl-7-phenyl-3H-benzo[d]imidazol-5-yl)pyrimidine-2,4-diamine], CC(Cc1cccc(CN=[N+]=[N-])c1)Nc1nccc(N(C)c2cc(-c3ccccc3)c3ncn(C)c3c2)n1 (stereo not shown) [N2-(1-(3-(Azidomethyl)phenyl)propan-2-yl)-N-4-methyl-N-4-(3-methyl-7-phenyl-3H-benzo[d]imidazol-5-yl)pyrimidine-2,4-diamine], CC(Cc1cccc(CN)c1)Nc1nccc(N(C)c2cc(-c3ccccc3)c3c(c2)ncn3C)n1 (stereo not shown) [N2-(1-(3-(aminomethyl)phenyl)propan-2-yl)-N-4-methyl-N-4-(1-methyl-7-phenyl-1H-benzo[d]imidazol-5-yl)pyrimidine-2,4-diamine], CN(c1cc(-c2ccccc2)c2ncn(C)c2c1)c1ccnc(NCCc2ccccc2Cl)n1 [N2-(2-chlorophenethyl)-N-4-methyl-N-4-(3-methyl-7-phenyl-3H-benzo[d]imidazol-5-yl)pyrimidine-2,4-diamine], CN(c1cc(-c2ccccc2)c2ncn(C)c2c1)c1ccnc(NC2CCC(N)CC2)n1 (stereo not shown) [N2-((1 s,4s)-4-aminocyclohexyl)-N-4-methyl-N-4-(3-methyl-7-phenyl-3H-benzo[d]imidazol-5-yl)pyrimidine-2,4-diamine], C[C@H](N)c1cccc(C[C@H](C)Nc2nccc(N(C)c3cc(-c4ccccc4)c4ncn(C)c4c3)n2)c1 [N2-((S)-1-(3-((S)-1-Aminoethyl)phenyl)propan-2-yl)-N-4-methyl-N-4-(3-methyl-7-phenyl-3H-benzo[d]imidazol-5-yl)pyrimidine-2,4-diamine], CC(C)CNc1nccc(N(C)c2cc(-c3ccccc3)c3ncn(C)c3c2)n1 [N2-isobutyl-N-4-methyl-N-4-(3-methyl-7-phenyl-3H-benzo[d]imidazol-5-yl)-pyrimidine-2,4-diamine], CN(c1cc(-c2ccccc2)c2nc[nH]c2c1)c1ccnc(NCCc2cccnc2)n1 [N4-Methyl-N-4-(7-phenyl-3H-benzo[d]imidazol-5-yl)-N-2-(2-(pyridin-3-yl)ethyl)-pyrimidine-2,4-diamine], CN(c1cc(-c2ccccc2)c2ncn(C)c2c1)c1ccnc(NCCc2cccnc2)n1 [N4-methyl-N-4-(3-methyl-7-phenyl-3H-benzo[d]imidazol-5-yl)-N-2-(2-(pyridin-3-yl)ethyl)pyrimidine-2,4-diamine], CN(c1cc(-c2ccccc2)c2ncn(C)c2c1)c1ccnc(NCCOc2ccccc2)n1 [N-4-methyl-N-4-(3-methyl-7-phenyl-3H-benzo[d]imidazol-5-yl)-N-2-(2-phenoxy-ethyl)pyrimidine-2,4-diamine], CN(c1cc(-c2ccccc2)c2ncn(C)c2c1)c1ccnc(NC2CCN(C(=O)OC(C)(C)C)CC2)n1 [tert-Butyl 4-(4-(methyl(3-methyl-7-phenyl-3H-benzo[d]imidazol-5-yl)amino)-pyrimidin-2-ylamino)piperidine-1-carboxylate]
